Patent US20220375548A1, “FRAGRANCE COMPOSITION TONALITY DETERMINATION METHOD, FRAGRANCE COMPOSITION DETERMINATION METHOD AND CORRESPONDING SYSTEMS” (FIRMENICH SA, priority 2019, published 2022)

Target: T1, OR7A17 (Homo sapiens, UniProt O14581)
T1 sequence (O14581 1-309): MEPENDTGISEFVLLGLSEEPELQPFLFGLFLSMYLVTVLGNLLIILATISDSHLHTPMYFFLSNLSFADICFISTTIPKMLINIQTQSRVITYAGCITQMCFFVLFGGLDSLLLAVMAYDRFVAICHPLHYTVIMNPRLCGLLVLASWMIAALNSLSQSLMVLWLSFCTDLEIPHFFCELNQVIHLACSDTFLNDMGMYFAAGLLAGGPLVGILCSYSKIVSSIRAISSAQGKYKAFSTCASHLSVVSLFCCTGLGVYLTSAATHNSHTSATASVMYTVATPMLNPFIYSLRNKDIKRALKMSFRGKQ
Experiment: odorant receptor activation (Example 3 in U.S. 62/911,096)
Type: cell-based
Conditions: associated with blonde woody tonality
Text: Non-limiting examples of an olfactory tonality include earthy, coconut, celery, hay etc. (see Example 1 in U.S. 62/911,096). For example, OR11A1 agonists all share a common earthy tonality even as they elicit an overall set of distinct tonalities (see Example 2 in U.S. 62/911,096). A volatile molecule may have greater than one tonality. For example, beta ionone has violet and blonde woody tonalities arising from the activation of OR5A1 and OR7A17, respectively (see Example 3 in U.S. 62/911,096).
The first relationship may be obtained by putting into contact a sample of volatile molecules with isolated ORs and by monitoring the activity of each said OR. The result of such an experiment may be stored inside a database cross referencing volatile molecule digital identifiers, representative of real volatile molecules, and the impact of said volatile molecule on the ORs monitored during the experiment.
Indicators for monitoring the activity of olfactory receptors include, for example, a fluorescent calcium indicator dye, a calcium indicator protein (e.g. GCaMP, a genetically encoded calcium indicator), a fluorescent cAMP indicator, a cell mobilization assay, a cellular dynamic mass redistribution assay, a label-free cell based assay, a cAMP response element (CRE) mediated reporter protein, a biochemical cAMP HTRF assay, a beta-arrestin assay, or an electrophysiological recording. […]

CC(=O)/C=C/C1=C(C)CCCC1(C)C [beta ionone]
activation of OR7A17: activation
